Tests used:
[1] = system: PMNs; assay: Exclusion of fluorescein-conjugated F(ab)2 anti-fibrin from zones of contact between PMNs and fibrin; assay type: cell-based, human
Text: Therefore, the exclusion of fluorescein-conjugated F(ab)2 anti-fibrin from zones of contact between LTB4- or IL-8-stimulated PMNs and fibrin was used as a measure of the interaction of these cells with fibrin-coated surfaces. About 50% of fibrin-adherent LTB4- or IL-8-stimulated PMNs formed adhesive zones that excluded this high molecular weight (100 kDa.) probe. As expected from studies with Rh-PEG (FIG. 8), >99% of fibrin-adherent TNF- or fMLP-stimulated PMNs excluded fluorescein-conjugated F(ab)2 anti-fibrin from their zones of contact with fibrin (data not shown).

[2] = system: PMNs; assay: PMN migration through fibrin gels in Boyden-type chemotaxis chambers; assay type: cell-based, human
Procedure: Becton-Dickinson cell culture inserts (pore sizes 3 or 8 μm: Franklin Lakes, N.J.) were overlaid with the following proteins:
Fibrin gels: 1 Unit of thrombin (a gift from Dr. John Fenton, Albany Medical College, Albany, N.Y.), in 5 μl of PBS was added first to each insert. 0.1 ml phosphate buffered saline supplemented with Ca^2+ and Mg^2+ (PBS) containing 100 μg commercial grade fibrinogen (Calbiochem. Inc., San Diego, Calif.) or purified fibrinogen [a gift from Dr. Jeffery Weitz, (MacMaster University, Hamilton, On.)] was then placed into each 8.2 mm diameter insert on top of the thrombin. The mixture was incubated at 37° C. for 5 min to allow fibrin gel formation (determined by visual inspection). 1 Unit PPACK (Calbiochem Inc., San Diego, Calif.; 10^−5 M final concentration), in 100 μl medium was added to each insert to inhibit thrombin, and gels were washed with 250 μl PBS to remove inactivated thrombin. The fibrin gels formed were about 1 mm thick as measured under a dissecting microscope.
PMNs were prepared from fresh heparinized blood from healthy adult volunteers by sedimentation on Ficoll-Hypaque gradients. Contaminating red blood cells were removed by hypotonic lysis, as described (7). The purity of PMN isolated by this method is >95% as determined by Wright-Giemsa staining (7). 10^6 PMNs in 250 μl of PBS supplemented with 5.5 mM glucose and 0.1% human serum albumin (PBSG-HSA), were placed in the upper compartment of each insert and incubated for 0-6 hrs at 37° C. in a humidified atmosphere containing 95% air/5% CO2. At the times and concentrations specified, chemoattractants/cytokines were added to the top or bottom compartment in 250 μl of PBSG-HSA. At the end of the incubation, the chambers were shaken to dislodge PMNs from the lower surface of the inserts. The medium in each lower compartment was collected and its content of PMNs was determined using either a Coulter Counter or a hemocytometer. Both methods gave similar results. Counts are expressed as the average number of PMNs that migrated into the lower compartment. Unless otherwise indicated, all values reported are the average of six data points from at least 3 independent experiments.

CCCCC/C=C\C[C@@H](O)/C=C/C=C/C=C\[C@@H](O)CCCC(=O)O [LTB4, leukotriene B4]
Fibrin-adherent PMNs that excluded fluorescein-conjugated F(ab)2 anti-fibrin (100 kDa) [1]: About 50%
More PMNs migrated through fibrin in response to LTB4 than to IL-8 [2]: 25-50%
PMN migration through fibrin gels at supra-optimal concentrations ([2]; IL-8 at >10^−7 M, supra-optimal LTB4): no indication of PMN desensitization
PMN migration through fibrin gels (in words) ([2]; chemoattractant in lower compartment, zymosan-activated human plasma 2-10%): migrated
PMN migration through fibrin gels without gradient ([2]; chemoattractant in upper compartment, or equal concentrations in upper and lower compartments): Few PMNs migrated
Concentration giving maximal PMN migration through fibrin gels ([2]; in bottom compartment, 6 hrs): 20 nM
PMNs that migrated through fibrin gels within 2 hrs ([2]; optimal concentration, 2 hrs): Ten
